# Reference: ChEMBL document CHEMBL4340505, “000Synthesis of new α-aminophosphonates: Evaluation as anti-inflammatory agents and QSAR studies” (2019)
# Activity calls are given as the source filed them. The rule behind the calls is not given here.
# Legend:
# Mus musculus [1] = experiment: Antiinflammatory activity in ICR mouse assessed as inhibition of TPA-induced ear edema by measuring reduction in weight of ear punches applied topically measured 4 hrs post TPA-challenge; type: functional
# Mus musculus [2] = experiment: Potency index, ratio of indomethacin ED50 to test compound ED50 for antiinflammatory activity in ICR mouse assessed as inhibition of TPA-induced ear edema by measuring reduction in weight of ear punches applied topically; type: functional
# Mus musculus [3] = experiment: Antiinflammatory activity in ICR mouse assessed as inhibition of TPA-induced ear edema by measuring reduction in weight of ear punches applied topically measured 4 hrs post TPA-challenge relative to control; type: functional
# Mus musculus [4] = experiment: Antiinflammatory activity in TPA-induced ICR mouse ear edema model assessed as reduction in number of neutrophils at 10 mg/ear applied topically measured 4 hrs post-TPA challenge by giemsa staining-based microscopic method; type: functional, organism-based
# Mus musculus [5] = experiment: Antiinflammatory activity in TPA-induced ICR mouse ear edema model assessed as reduction in monocytes content AUC at 10 mg/ear applied topically measured 4 hrs post TPA-challenge giemsa staining-based microscopic method; type: functional; design: scale not given: the % may be the effect or the level left
# Mus musculus [6] = experiment: Antiinflammatory activity in TPA-induced ICR mouse ear edema model assessed as reduction in neutrophil content AUC at 10 mg/ear applied topically measured 4 hrs post-TPA challenge by giemsa staining-based microscopic method relative to control; type: functional; design: scale not given: the % may be the effect or the level left
# Mus musculus [7] = experiment: Antiinflammatory activity in TPA-induced ICR mouse ear edema model assessed as reduction in neutrophil content at 10 mg/ear applied topically by giemsa staining-based microscopic method; type: functional, organism-based; details: TDE = time-dependent effect
# Mus musculus [8] = experiment: Antiinflammatory activity in TPA-induced ICR mouse ear edema model assessed as reduction in monocyte content at 10 mg/ear applied topically by giemsa staining-based microscopic method; type: functional, organism-based; details: TDE = time-dependent effect
# Mus musculus [9] = experiment: Antiinflammatory activity in TPA-induced ICR mouse ear edema model assessed as reduction in number of neutrophils at 1 mg/ear applied topically measured 4 hrs post-TPA challenge by giemsa staining-based microscopic method; type: functional, organism-based
# Mus musculus [10] = experiment: Antiinflammatory activity in TPA-induced ICR mouse ear edema model assessed as reduction in monocytes content AUC at 1 mg/ear applied topically measured 4 hrs post TPA-challenge giemsa staining-based microscopic method; type: functional; design: scale not given: the % may be the effect or the level left
# Mus musculus [11] = experiment: Antiinflammatory activity in TPA-induced ICR mouse ear edema model assessed as reduction in neutrophil content AUC at 1 mg/ear applied topically measured 4 hrs post-TPA challenge by giemsa staining-based microscopic method relative to control; type: functional; design: scale not given: the % may be the effect or the level left
# Mus musculus [12] = experiment: Antiinflammatory activity in ICR mouse assessed as inhibition of TPA-induced ear edema by measuring reduction in weight of ear punches up to 1.25 mg/ear applied topically measured 4 hrs post TPA-challenge relative to control; type: functional
# Mus musculus [13] = experiment: Antiinflammatory activity in TPA-induced ICR mouse ear edema model assessed as reduction in neutrophil content AUC at 3 mg/ear applied topically measured 4 hrs post-TPA challenge by giemsa staining-based microscopic method relative to control; type: functional; design: scale not given: the % may be the effect or the level left
# Mus musculus [14] = experiment: Antiinflammatory activity in TPA-induced ICR mouse ear edema model assessed as reduction in monocytes content AUC at 3 mg/ear applied topically measured 4 hrs post TPA-challenge giemsa staining-based microscopic method; type: functional; design: scale not given: the % may be the effect or the level left
# Mus musculus [15] = experiment: Antiinflammatory activity in TPA-induced ICR mouse ear edema model assessed as reduction in monocyte content at 3 mg/ear applied topically by giemsa staining-based microscopic method; type: functional, organism-based; details: TDE = time-dependent effect
# Mus musculus [16] = experiment: Antiinflammatory activity in TPA-induced ICR mouse ear edema model assessed as reduction in number of neutrophils at 3 mg/ear applied topically measured 4 hrs post-TPA challenge by giemsa staining-based microscopic method; type: functional, organism-based
# Mus musculus [17] = experiment: Antiinflammatory activity in TPA-induced ICR mouse ear edema model assessed as reduction in neutrophil content at 3 mg/ear applied topically by giemsa staining-based microscopic method; type: functional, organism-based; details: TDE = time-dependent effect
# Mus musculus [18] = experiment: Antiinflammatory activity in TPA-induced ICR mouse ear edema model assessed as reduction in neutrophil content at 5.7 mg/ear applied topically by giemsa staining-based microscopic method; type: functional, organism-based; details: TDE = time-dependent effect
# Mus musculus [19] = experiment: Antiinflammatory activity in TPA-induced ICR mouse ear edema model assessed as reduction in number of neutrophils at 5.7 mg/ear applied topically measured 4 hrs post-TPA challenge by giemsa staining-based microscopic method; type: functional, organism-based
# Mus musculus [20] = experiment: Antiinflammatory activity in TPA-induced ICR mouse ear edema model assessed as reduction in monocyte content at 5.7 mg/ear applied topically by giemsa staining-based microscopic method; type: functional, organism-based; details: TDE = time-dependent effect
# Mus musculus [21] = experiment: Antiinflammatory activity in TPA-induced ICR mouse ear edema model assessed as reduction in neutrophil content AUC at 5.7 mg/ear applied topically measured 4 hrs post-TPA challenge by giemsa staining-based microscopic method relative to control; type: functional; design: scale not given: the % may be the effect or the level left
# Mus musculus [22] = experiment: Antiinflammatory activity in TPA-induced ICR mouse ear edema model assessed as reduction in monocytes content AUC at 5.7 mg/ear applied topically measured 4 hrs post TPA-challenge giemsa staining-based microscopic method; type: functional; design: scale not given: the % may be the effect or the level left
structure (smiles),measurement,setting,value
COP(=O)(OC)C(C)(CO)NCc1ccccc1 (racemic),ED50,Mus musculus [1],0.28 to 3.63 mg
same,inhibition,Mus musculus [1],Dose-dependent effect
same,Ratio ED50,Mus musculus [2],0.13
same,%max,Mus musculus [3],81.6%
COP(=O)(OC)C(C)(CO)N[C@@H](C)c1ccccc1 (mixture of isomers),ED50,Mus musculus [1],0.95 to 1.05 mg
same,inhibition,Mus musculus [1],Dose-dependent effect
same,Ratio ED50,Mus musculus [2],0.46
same,%max,Mus musculus [3],95.6%
COP(=O)(OC)C(C)(O)COC(C)=O (racemic),ED50,Mus musculus [1],0.1 to 10.14 mg
same,Ratio ED50,Mus musculus [2],0.04
same,%max,Mus musculus [3],47.2%
COc1ccc(CCNC(C)(CO)P(=O)(OC)OC)cc1OC (racemic),ED50,Mus musculus [1],0.99 to 1 mg
same,inhibition,Mus musculus [1],Dose-dependent effect
same,Ratio ED50,Mus musculus [2],0.48
same,%max,Mus musculus [3],94.6%
COP(=O)(OC)C(C)(COC(C)=O)NCc1ccccc1 (racemic),ED50,Mus musculus [1],0.68 to 1.46 mg
same,inhibition,Mus musculus [1],Dose-dependent effect
same,Ratio ED50,Mus musculus [2],0.33
same,Activity,Mus musculus [4],Active
same,Activity,Mus musculus [5],18.9 - 34.1%
same,%max,Mus musculus [3],97.6%
same,Activity,Mus musculus [6],63%
same,Activity,Mus musculus [7],Tde
same,Activity,Mus musculus [8],Tde
COc1ccc(CCNC(C)(COC(C)=O)P(=O)(OC)OC)cc1OC (racemic),ED50,Mus musculus [1],0.77 to 1.29 mg
same,inhibition,Mus musculus [1],Dose-dependent effect
same,Ratio ED50,Mus musculus [2],0.37
same,Activity,Mus musculus [4],Active
same,Activity,Mus musculus [5],18.9 - 34.1%
same,%max,Mus musculus [3],97%
same,Activity,Mus musculus [6],62.6%
same,Activity,Mus musculus [7],Tde
same,Activity,Mus musculus [8],Tde
COc1ccc2c(c1)c(CC(=O)O)c(C)n2C(=O)c1ccc(Cl)cc1 [INDOMETHACIN],Activity,Mus musculus [9],Active
same,Activity,Mus musculus [10],64.2%
same,ED50,Mus musculus [1],0.49 mg
same,inhibition,Mus musculus [1],Dose-dependent effect
same,Activity,Mus musculus [11],57.7%
same,inhibition (INH),Mus musculus [12],14.6 - 99.3%
same,%max,Mus musculus [3],99.3%
COP(=O)(OC)C(C)(COC(C)=O)NCC1CCCCC1 (racemic),ED50,Mus musculus [1],0.95 to 1.05 mg
same,inhibition,Mus musculus [1],Dose-dependent effect
same,Activity,Mus musculus [13],62.9%
same,Ratio ED50,Mus musculus [2],0.5
same,Activity,Mus musculus [14],18.9 - 34.1%
same,%max,Mus musculus [3],93%
same,Activity,Mus musculus [15],Tde
same,Activity,Mus musculus [16],Active
same,Activity,Mus musculus [17],Tde
COP(=O)(OC)C(C)(COC(C)=O)N[C@@H](C)c1ccccc1 (mixture of isomers),ED50,Mus musculus [1],0.73 to 1.37 mg
same,inhibition,Mus musculus [1],Dose-dependent effect
same,Ratio ED50,Mus musculus [2],0.67
same,Activity,Mus musculus [18],Tde
same,Activity,Mus musculus [19],Active
same,%max,Mus musculus [3],96.1%
same,Activity,Mus musculus [20],Tde
same,Activity,Mus musculus [21],46.7%
same,Activity,Mus musculus [22],18.9 - 34.1%
C=CCNC(C)(COC(C)=O)P(=O)(OC)OC (racemic),ED50,Mus musculus [1],0.59 to 1.68 mg
same,inhibition,Mus musculus [1],Dose-dependent effect
same,Ratio ED50,Mus musculus [2],0.28
same,%max,Mus musculus [3],74.3%
COc1ccc(CNC(C)(COC(C)=O)P(=O)(OC)OC)cc1 (racemic),ED50,Mus musculus [1],0.58 to 1.73 mg
same,Ratio ED50,Mus musculus [2],0.29
same,%max,Mus musculus [3],66.1%
